These results are taken from patent publication US9359281B2, “Enantiomers of 2-hydroxy derivatives of fatty acids” (UNIVERSITAT DE LES ILLES BALEARS, priority 2011, dated 2016).

The first test concerns A549 cells. Kind of test: Cell growth inhibition, A549. The format is cell-based, human. The note with it: A549, sodium salt form. From the text: At this respect, concentrations which inhibit growth of tumour cells (IC50) are lower for the enantiomer S ([−]) in all studied tumour lines (Table 5). […] In all of the cases, the molecules employed were in the form of sodium salt.
Consider `CCCCC/C=C\C/C=C\CCCCCCC(O)C(=O)O` (stereo not drawn) [[+]2OH18:2] [2-hydroxylinoleic acid], for which the IC50 is 186 ± 21.9 µM.

For the compound `CCCCCC/C=C\CCCCCCC(O)C(=O)O` (stereo not drawn) [[−]2OH16:1] [2-hydroxypalmitoleic acid], the IC50 worked out at 110 ± 14 µM.

Consider `CC/C=C\C/C=C\C/C=C\CCCCCCC(O)C(=O)O` (racemic) [Racemic 2OH18:3a, 2-hydroxy-α-linoleic acid], for which the IC50 amounted to 219 ± 15.4 µM.

With `CCCCC/C=C\C/C=C\C/C=C\CCCC(O)C(=O)O` (stereo not drawn) [[+]2OH18:3g] [2-hydroxy-γ-linoleic acid], the IC50 worked out at 342 ± 31.5 µM.

With `CCCCC/C=C\C/C=C\C/C=C\CCCC(O)C(=O)O` (racemic) [Racemic 2OH18:3g, 2-hydroxy-γ-linoleic acid], the IC50 worked out at 206 ± 21.7 µM.

On to `CC/C=C\C/C=C\C/C=C\CCCCCCC(O)C(=O)O` (stereo not drawn) [[−]2OH18:3a] [2-hydroxy-α-linoleic acid], for which the IC50 is 146 ± 10.9 µM.

Regarding `CCCCC/C=C\C/C=C\CCCCCCC(O)C(=O)O` (stereo not drawn) [[−]2OH18:2] [2-hydroxylinoleic acid], the IC50 amounted to 69.9 ± 11.2 µM.

Regarding `CC/C=C\C/C=C\C/C=C\CCCCCCC(O)C(=O)O` (stereo not drawn) [[+]2OH18:3a] [2-hydroxy-α-linoleic acid], the IC50 amounted to 351 ± 22.7 µM.

On to `CCCCC/C=C\C/C=C\C/C=C\CCCC(O)C(=O)O` (stereo not drawn) [[−]2OH18:3g] [2-hydroxy-γ-linoleic acid], for which the IC50 was found to be 155 ± 7.5 µM.

`CCCCCC/C=C\CCCCCCC(O)C(=O)O` (stereo not drawn) [[+]2OH16:1] [2-hydroxypalmitoleic acid]: the IC50 was determined as 299 ± 34.2 µM.

The test is the same for the next values; noted with them: Homo sapiens, A549, A549, sodium salt form.
Take `CCCCCC/C=C\CCCCCCC(O)C(=O)O` (racemic) [Racemic 2OH16:1, 2-hydroxypalmitoleic acid]: the IC50 came to 193 ± 9.3 µM.

Consider `CCCCC/C=C\C/C=C\CCCCCCC(O)C(=O)O` (racemic) [Racemic 2OH18:2, 2-hydroxylinoleic acid], for which the IC50 was found to be 105 ± 4.1 µM.

As usually defined, the IC50 is the concentration that gives 50% inhibition.
